The results in this text go back to patent US9844556B2, “Preventive/therapeutic method and preventive/therapeutic agent for complications after cataract surgery” (KOWA COMPANY, LTD., priority 2015, dated 2017).

Assay [1] deals with Normal human fibroblasts. As to the kind of experiment: Cytostatic action, BrdU uptake (Cell Proliferation ELISA). The settings on record: dermal fibroblast proliferation, 2 days. The assay is classed as cell-based. How it is done: Normal human fibroblasts (Sanko Junyaku Co., Ltd.) were seeded at 2000 cells/well and cultured overnight. Next day, the medium (FGM-2 (Sanko Junyaku Co., Ltd.)) was exchanged (150 μL), and 10 μL of Ripasudil was then added so that the final concentration was 0.1 μM, 1 μM and 10 μM. After culturing for 2 days, 10 μL of BrdU (58.8-fold diluted solution: an undiluted solution is a 1000-fold solution) was added, and the cells were cultured for 2 hours. OD540-620 was measured using a plate reader after fixation and antibody addition, washing and coloring, and reaction termination in accordance with the protocol of Cell Proliferation ELISA BrdU kit (Roche), and an action on proliferation was evaluated. A value in a sample in which Ripasudil is not added is considered as 100%, and the uptake rate of BrdU under each condition is shown in Table 2.
(In an ELISA, binding on a coated surface is turned into a signal by an enzyme label.)

For assay [2], the system named is Human lens epithelial cells (SRA01/04). Briefly: Action on DNA synthesis capability (BrdU uptake) of human lens epithelial cell line. The settings on record: 24 hours. The assay is classed as cell-based. How it is done: Human lens epithelial cells (SRA01/04 (Riken Cell Bank)) were cultured using 20% FBS-DMEM medium under conditions of 37° C. and 5% CO2. The concentration of SRA01/04 was adjusted using 2% FBS-DMEM, and the cells were seeded in a 96 Well Plate at 100 μL/well (5000 cells/well) and cultured under conditions of 37° C. and 5% CO2 for 24 hours. The medium was exchanged with 5% FBS-DMEM medium, and TGFβ at 10 ng/mL (final concentration) or Ripasudil at 10, 30 or 100 μM (final concentration) was added to each well, and the cells were cultured for another 24 hours. The uptake rate of 5-bromo-2′-deoxyuridine (BrdU) in the cells was measured using Cell Proliferation ELISA, BrdU (colorimetric) kit (Roche) at a measurement wavelength of 450 nm by Multiskan MS version 8.0 (LABSYSTEMS), and cell proliferation properties were evaluated.

Assay [3] relates to Human lens epithelial cells (HLEpiC). As to the kind of experiment: Reversibility of inhibition of actin stress fiber formation after removal. Type of assay: cell-based. The settings on record: recultured about 24 hours after removal. How it is done:
After removal of the test substance, positive control or comparative control in Example 1, the cells were recultured for about another 24 hours, treated in accordance with the operation in Example 1, and then observed by a confocal laser scanning microscope in the same manner as in Example 1 to observe the reversibility of actin stress fibers.

For assay [4], the system named is HLEpiC. As to the kind of experiment: Determination of G-actin/F-actin ratio using G-Actin/F-Actin In Vivo Assay Kit. Type of assay: cell-based, human. Particulars: about an hour, control 1.16. How it is done: HLEpiC was diluted with a medium (Epithelial Cell Medium), and dispensed to a Poly-L-lysine coated T-75 flask at about 5000 cells/cm^2, and cultured in a carbon dioxide incubator (37° C., 5% CO2) until about 50% confluent. A test substance, a positive control or the medium (control) at each concentration given below was added to each flask at 20 mL.
Test substance: Ripasudil with a concentration of […], 100 μM or 1 mM,
Positive control: CD with a concentration of 2 μM, and
These were treated in a carbon dioxide incubator (37° C., 5% CO2) for about an hour.
To 20 mL of Lysis and F-actin stabilization buffer was added 200 μL of 100 mM ATP stock solution and 200 μL of 100× Protease inhibitor cocktail stock to produce LAS2 buffer, and this was incubated in a carbon dioxide incubator (37° C.) for about 30 minutes. Warmed LAS2 buffer was added at 2.5 mL to each flask in which the medium was removed with vacuum suction.
Next, adherent HLEpiC was completely scraped with a cell scraper and transferred with the LAS2 buffer to a conical tube, and HLEpiC was crushed with a micropipette (hereinafter, referred to as cell solution). This cell solution was incubated in a carbon dioxide incubator (37° C.) for about 10 minutes and then centrifuged for 10 minutes (2000 rpm, room temperature). The supernatant was dispensed into an ultracentrifugal tube at 1.8 mL and centrifuged for an hour with an ultracentrifuge (100,000× g, 37° C.). At this time, F-actin is precipitated and G-actin remains in the supernatant.
The supernatant was transferred to a conical tube while being careful not to suck F-actin precipitates.
To precipitates of each sample was added 1.8 mL of F-actin depolymerizing buffer, and this was incubated under ice-cold conditions for an hour to depolymerize actin.
From each supernatant sample and precipitate sample, 100 μL each was put in a 1.5 mL Eppendorf tube, and 25 μL of 5×SDS sample buffer was added and stirred.
Each sample was boiled in a boiling water bath for 5 minutes.
Each sample was subjected to SDS-polyacrylamide gel electrophoresis, followed by Western blotting.
Next, after treatment using a Western blotting detection reagent (ECL Select Western Blotting Detection Reagent, GE Healthcare Japan), proteins were detected using a Lumino image analyzer. The quantities of G-actin and F-actin were determined using an analysis software (ImageQuant TL, GE Healthcare Japan) and the G-actin/F-actin ratio was calculated.
The variation in the quantity of F-actin required to form actin stress fibers was evaluated by comparison with the G-actin/F-actin ratio of untreated (Control) cells.

Regarding `C[C@H]1CNCCCN1S(=O)(=O)c1cccc2cncc(F)c12` [Ripasudil, 4-fluoro-5-{[(2S)-2-methyl-1,4-diazepan-1-yl]sulfonyl}isoquinoline], the “Uptake rate of BrdU (% of control)” value is recorded as 80.0 % of control in assay [1] (Ripasudil 0.1 μM), 59.3 % of control in assay [1] (Ripasudil 1.0 μM) and 10.9 % of control in assay [1] (Ripasudil 10.0 μM). Also, the “DNA synthesis capability (BrdU uptake) of SRA01/04” value was “statistically significant decrease” in assay [2] (30 μM) and “dose-dependent inhibitory action” in assay [2] (10, 30 or 100 μM). The “reversibility of actin stress fibers” value in assay [3] (100 μM) and in assay [3] (1 mM) was “recovered” throughout. Further, the figures for the G-actin/F-actin ratio in assay [4] (10 μM), in assay [4] (100 μM) and in assay [4] (1 mM) were 1.91, 4.55 and 24.87, respectively.
